{"source": "the supplement of paper PMC10307832", "test_in_all_cases": "relative viability (nuclei count vs DMSO), 5 days (fraction); higher = more cells survive", "key": {"[1]": {"compound": "CCn1c(-c2nonc2N)nc2cnc(Oc3cccc(NC(=O)c4ccc(OCCN5CCOCC5)cc4)c3)cc21 + Cc1nc(NC(=O)N2CCC[C@H]2C(N)=O)sc1-c1ccnc(C(C)(C)C(F)(F)F)c1 [Alpelisib] (partner 2 µM)", "procedure,_shortened": "(§1)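 Lung cancer cell lines, seeded in 1536-well plates, were treated the following day by pin tool with a single drug or with five library-drug doses (not always all listed) in √10 steps on top of a fixed anchor-drug dose. Cells were fixed and nuclei stained in one step after 5 days, and nuclei were counted. Relative viability is the nuclei count for treated wells divided by that for vehicle wells, reported as medians of duplicate plates.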"}, "[2]": {"compound": "CCC1=CN=CN=C1N2CCN(CC2)CC3=NC4=C(N3)C=C(C=C4)C(F)(F)F + CCNC(=O)c1noc(-c2cc(C(C)C)c(O)cc2O)c1-c1ccc(CN2CCOCC2)cc1 [Luminespib] (partner 0.01 µM)", "procedure,_shortened": "as §1"}, "[3]": {"compound": "CCC1=CN=CN=C1N2CCN(CC2)CC3=NC4=C(N3)C=C(C=C4)C(F)(F)F + CC(=O)c1c(C)c2cnc(Nc3ccc(N4CCNCC4)cn3)nc2n(C2CCCC2)c1=O [Palbociclib] (partner 0.5 µM)", "procedure,_shortened": "as §1"}, "Mirin + Crizotinib": {"compound": "N=C1NC(=O)/C(=C/c2ccc(O)cc2)S1 [Mirin] + C[C@@H](Oc1cc(-c2cnn(C3CCNCC3)c2)cnc1N)c1c(Cl)ccc(F)c1Cl [Crizotinib] (partner 1 µM)", "procedure,_shortened": "as §1"}}, "data": [{"cell line": "UMC-11", "values": [{"measurement": "relative viability", "setting": "[1]; first compound 0.04 µM", "result": 1.17}, {"measurement": "relative viability", "setting": "[1]; first compound 0.1265 µM", "result": 0.991}, {"measurement": "relative viability", "setting": "[1]; first compound 0.4 µM", "result": 0.78}, {"measurement": "relative viability", "setting": "[1]; first compound 1.265 µM", "result": 0.251}, {"measurement": "relative viability", "setting": "[1]; first compound 4 µM", "result": 0.233}, {"measurement": "relative viability", "setting": "[2]; first compound 0.04 µM", "result": 0.974}, {"measurement": "relative viability", "setting": "[2]; first compound 0.1265 µM", "result": 1.05}, {"measurement": "relative viability", "setting": "[2]; first compound 0.4 µM", "result": 0.917}, {"measurement": "relative viability", "setting": "[2]; first compound 1.265 µM", "result": 0.902}, {"measurement": "relative viability", "setting": "[2]; first compound 4 µM", "result": 0.746}, {"measurement": "relative viability", "setting": "[3]; first compound 0.04 µM", "result": 0.331}, {"measurement": "relative viability", "setting": "[3]; first compound 0.1265 µM", "result": 0.315}, {"measurement": "relative viability", "setting": "[3]; first compound 0.4 µM", "result": 0.306}, {"measurement": "relative viability", "setting": "[3]; first compound 1.265 µM", "result": 0.221}, {"measurement": "relative viability", "setting": "[3]; first compound 4 µM", "result": 0.257}, {"measurement": "relative viability", "setting": "Mirin + Crizotinib; first compound 0.25 µM", "result": 0.499}, {"measurement": "relative viability", "setting": "Mirin + Crizotinib; first compound 0.7906 µM", "result": 0.578}, {"measurement": "relative viability", "setting": "Mirin + Crizotinib; first compound 2.5 µM", "result": 0.529}, {"measurement": "relative viability", "setting": "Mirin + Crizotinib; first compound 7.906 µM", "result": 0.496}, {"measurement": "relative viability", "setting": "Mirin + Crizotinib; first compound 25 µM", "result": 0.236}]}]}
